Laboratory results published in publication PMC9418190, “UDP-glucose, cereblon-dependent proinsulin degrader” (Scientific Reports, 2022).

Biological target: T1, cereblon (Mus musculus, UniProt Q8C7D2)
T1 construct: gene Crbn
T1 sequence (Q8C7D2 1-445): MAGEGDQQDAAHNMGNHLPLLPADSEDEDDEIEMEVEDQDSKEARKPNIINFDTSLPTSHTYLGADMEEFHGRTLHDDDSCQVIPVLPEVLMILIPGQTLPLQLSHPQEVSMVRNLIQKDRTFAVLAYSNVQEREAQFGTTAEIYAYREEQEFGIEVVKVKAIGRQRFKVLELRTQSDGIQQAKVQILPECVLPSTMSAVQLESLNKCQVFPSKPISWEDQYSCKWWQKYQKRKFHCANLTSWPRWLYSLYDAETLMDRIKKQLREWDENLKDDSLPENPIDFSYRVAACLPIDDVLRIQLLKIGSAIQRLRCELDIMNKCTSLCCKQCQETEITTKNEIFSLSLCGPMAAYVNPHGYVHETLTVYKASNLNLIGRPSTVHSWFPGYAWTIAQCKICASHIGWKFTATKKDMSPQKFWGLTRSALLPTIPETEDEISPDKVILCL
Assay: dose-dependent protection of proinsulin from cereblon-dependent degradation in NIT1 cells
Type: cell-based

## O=C1CCC(=O)N1 [succinimide]
  dose-dependent protection of proinsulin from cereblon-dependent degradation in N: In fact, succinimide binds to cereblon, protects proinsulin degradation from proinsulin degrader X in a dose-dependent manner
